From US20260020586A1, “METHOD OF PREPARING GRANULAR FEED ADDITIVE” (CJ CHEILJEDANG CORPORATION, priority 2020, published 2026) come the findings set out here.

A short description of data set [1]: pH of granules. Type of data set: physicochemical. To be noted: granules of Table 8 (bubbling tower, different carbon dioxide input times).
Data set [2] can be described thus: Degree of agglomeration visually evaluated after storage. Type of data set: physicochemical. To be noted: visual score, good: 0 to poor: 5; after 1 week at 40° C. and 60% relative humidity.

With `Cl.NCCCC[C@H](N)C(=O)O` [Comparative Example 7, L-Lysine hydrochloride], in data set [1], the pH is recorded as 5.8. Also, the “Degree of agglomeration (good: 0-poor: 5)” value in data set [2] amounted to 1.
